# Settings: Cohort 2 200 mg BID
structure (smiles),measurement,value
"CC(C)NC(=O)COc1cccc(-c2nc(Nc3ccc4[nH]ncc4c3)c3ccccc3n2)c1 [Belumosudil, 2-{3-[4-(1H-indazol-5-ylamino)-2-quinazolinyl]phenoxy}-N-(propan-2-yl) acetamide]","SAE Cardiac arrest, # events",0
same,"SAE Cardiac arrest, affected/at risk",0/16
same,"SAE Cellulitis, # events",1
same,"SAE Cellulitis, affected/at risk",1/16
same,"SAE Chronic graft versus host disease in skin, # events",1
same,"SAE Chronic graft versus host disease in skin, affected/at risk",1/16
same,"SAE Citrobacter infection, # events",1
same,"SAE Citrobacter infection, affected/at risk",1/16
same,"SAE Dyspnoea, # events",1
same,"SAE Dyspnoea, affected/at risk",1/16
same,"SAE Embolism, # events",1
same,"SAE Embolism, affected/at risk",1/16
same,"SAE Febrile neutropenia, # events",0
same,"SAE Febrile neutropenia, affected/at risk",0/16
same,"SAE Graft versus host disease in lung, # events",0
same,"SAE Graft versus host disease in lung, affected/at risk",0/16
same,"SAE Hypoxia, # events",0
same,"SAE Hypoxia, affected/at risk",0/16
same,"SAE Influenza A virus test positive, # events",0
same,"SAE Influenza A virus test positive, affected/at risk",0/16
same,"SAE Influenza like illness, # events",0
same,"SAE Influenza like illness, affected/at risk",0/16
same,"SAE Lacunar infarction, # events",1
same,"SAE Lacunar infarction, affected/at risk",1/16
same,"SAE Leukaemia recurrent, # events",0
same,"SAE Leukaemia recurrent, affected/at risk",0/16
same,"SAE Lipomatosis, # events",0
same,"SAE Lipomatosis, affected/at risk",0/16
same,"SAE Metastases to meninges, # events",0
same,"SAE Metastases to meninges, affected/at risk",0/16
same,"SAE Muscular weakness, # events",1
same,"SAE Muscular weakness, affected/at risk",1/16
same,"SAE Myelodysplastic syndrome, # events",0
same,"SAE Myelodysplastic syndrome, affected/at risk",0/16
same,"SAE Non-cardiac chest pain, # events",2
same,"SAE Non-cardiac chest pain, affected/at risk",1/16
same,"SAE Obliterative bronchiolitis, # events",0
same,"SAE Obliterative bronchiolitis, affected/at risk",0/16
same,"SAE Pericardial effusion, # events",0
same,"SAE Pericardial effusion, affected/at risk",0/16
same,"SAE Pleural effusion, # events",0
same,"SAE Pleural effusion, affected/at risk",0/16
same,"SAE Pneumonia viral, # events",0
same,"SAE Pneumonia viral, affected/at risk",0/16
same,"SAE Pneumonia, # events",1
same,"SAE Pneumonia, affected/at risk",1/16
same,"SAE Pregnancy of partner, # events",0
same,"SAE Pregnancy of partner, affected/at risk",0/16
same,"SAE Proteinuria, # events",0
same,"SAE Proteinuria, affected/at risk",0/16
same,"SAE Respirovirus test positive, # events",1
same,"SAE Respirovirus test positive, affected/at risk",1/16
same,"SAE Small intestinal obstruction, # events",0
same,"SAE Small intestinal obstruction, affected/at risk",0/16
same,"SAE Stenotrophomonas infection, # events",1
same,"SAE Stenotrophomonas infection, affected/at risk",1/16
same,"SAE Urinary retention, # events",0
same,"SAE Urinary retention, affected/at risk",0/16
same,"SAE Urinary tract infection, # events",1
same,"SAE Urinary tract infection, affected/at risk",1/16
same,"SAE Varicella zoster virus infection, # events",0
same,"SAE Varicella zoster virus infection, affected/at risk",0/16
same,"SAE total, affected/at risk",6/16
same,Sinus pain: # Events,0
same,Sinus pain: Affected/At Risk,0/16
same,Sinus pain: Affected/At Risk (%),(0%)
same,Sinusitis: # Events,4
same,Sinusitis: Affected/At Risk,2/16
same,Sinusitis: Affected/At Risk (%),(12.5%)
same,Skin abrasion: # Events,0
same,Skin abrasion: Affected/At Risk,0/16
same,Skin abrasion: Affected/At Risk (%),(0%)
same,Skin lesion: # Events,1
same,Skin lesion: Affected/At Risk,1/16
same,Skin lesion: Affected/At Risk (%),(6.25%)
same,Skin papilloma: # Events,0
same,Skin papilloma: Affected/At Risk,0/16
same,Skin papilloma: Affected/At Risk (%),(0%)
same,Spinal compression fracture: # Events,0
same,Spinal compression fracture: Affected/At Risk,0/16
same,Spinal compression fracture: Affected/At Risk (%),(0%)
same,Squamous cell carcinoma of skin: # Events,2
same,Squamous cell carcinoma of skin: Affected/At Risk,2/16
same,Squamous cell carcinoma of skin: Affected/At Risk (%),(12.5%)
same,Stomatitis: # Events,1
same,Stomatitis: Affected/At Risk,1/16
same,Stomatitis: Affected/At Risk (%),(6.25%)
same,Superior vena cava syndrome: # Events,2
same,Superior vena cava syndrome: Affected/At Risk,1/16
same,Superior vena cava syndrome: Affected/At Risk (%),(6.25%)
same,Tachycardia: # Events,0
same,Tachycardia: Affected/At Risk,0/16
same,Tachycardia: Affected/At Risk (%),(0%)
same,Tendonitis: # Events,1
same,Tendonitis: Affected/At Risk,1/16
same,Tendonitis: Affected/At Risk (%),(6.25%)
same,Testicular pain: # Events,0
same,Testicular pain: Affected/At Risk,0/16
same,Testicular pain: Affected/At Risk (%),(0%)
same,Testicular swelling: # Events,0
same,Testicular swelling: Affected/At Risk,0/16
same,Testicular swelling: Affected/At Risk (%),(0%)
same,Thoracic spinal stenosis: # Events,0
same,Thoracic spinal stenosis: Affected/At Risk,0/16
same,Thoracic spinal stenosis: Affected/At Risk (%),(0%)
same,Thrombocytopenia: # Events,1
same,Thrombocytopenia: Affected/At Risk,1/16
same,Thrombocytopenia: Affected/At Risk (%),(6.25%)
same,Thrombocytosis: # Events,0
same,Thrombocytosis: Affected/At Risk,0/16
same,Thrombocytosis: Affected/At Risk (%),(0%)
same,Tinea pedis: # Events,1
same,Tinea pedis: Affected/At Risk,1/16
same,Tinea pedis: Affected/At Risk (%),(6.25%)
same,Tooth fracture: # Events,1
same,Tooth fracture: Affected/At Risk,1/16
same,Tooth fracture: Affected/At Risk (%),(6.25%)
same,Total Other Adverse Events: Affected/At Risk,16/16
same,Total Other Adverse Events: Affected/At Risk (%),(100%)
same,Transfusion reaction: # Events,0
same,Transfusion reaction: Affected/At Risk,0/16
same,Transfusion reaction: Affected/At Risk (%),(0%)
same,Tremor: # Events,2
same,Tremor: Affected/At Risk,1/16
same,Tremor: Affected/At Risk (%),(6.25%)
same,Type 2 diabetes mellitus: # Events,0
same,Type 2 diabetes mellitus: Affected/At Risk,0/16
same,Type 2 diabetes mellitus: Affected/At Risk (%),(0%)
same,Ulcerative keratitis: # Events,1
same,Ulcerative keratitis: Affected/At Risk,1/16
same,Ulcerative keratitis: Affected/At Risk (%),(6.25%)
same,Upper respiratory tract infection: # Events,13
same,Upper respiratory tract infection: Affected/At Risk,9/16
same,Upper respiratory tract infection: Affected/At Risk (%),(56.25%)
same,Upper-airway cough syndrome: # Events,2
same,Upper-airway cough syndrome: Affected/At Risk,2/16
same,Upper-airway cough syndrome: Affected/At Risk (%),(12.5%)

# Reference: US20250255867A1 (Kadmon Corporation, LLC, priority 2022, published 2025)
